Molecular target: Cereblon (CRBN) (Homo sapiens, UniProt Q96SW2)
Experiment: biochemical
Type: binding

Cereblon (CRBN), sequence (Q16531 2-1140): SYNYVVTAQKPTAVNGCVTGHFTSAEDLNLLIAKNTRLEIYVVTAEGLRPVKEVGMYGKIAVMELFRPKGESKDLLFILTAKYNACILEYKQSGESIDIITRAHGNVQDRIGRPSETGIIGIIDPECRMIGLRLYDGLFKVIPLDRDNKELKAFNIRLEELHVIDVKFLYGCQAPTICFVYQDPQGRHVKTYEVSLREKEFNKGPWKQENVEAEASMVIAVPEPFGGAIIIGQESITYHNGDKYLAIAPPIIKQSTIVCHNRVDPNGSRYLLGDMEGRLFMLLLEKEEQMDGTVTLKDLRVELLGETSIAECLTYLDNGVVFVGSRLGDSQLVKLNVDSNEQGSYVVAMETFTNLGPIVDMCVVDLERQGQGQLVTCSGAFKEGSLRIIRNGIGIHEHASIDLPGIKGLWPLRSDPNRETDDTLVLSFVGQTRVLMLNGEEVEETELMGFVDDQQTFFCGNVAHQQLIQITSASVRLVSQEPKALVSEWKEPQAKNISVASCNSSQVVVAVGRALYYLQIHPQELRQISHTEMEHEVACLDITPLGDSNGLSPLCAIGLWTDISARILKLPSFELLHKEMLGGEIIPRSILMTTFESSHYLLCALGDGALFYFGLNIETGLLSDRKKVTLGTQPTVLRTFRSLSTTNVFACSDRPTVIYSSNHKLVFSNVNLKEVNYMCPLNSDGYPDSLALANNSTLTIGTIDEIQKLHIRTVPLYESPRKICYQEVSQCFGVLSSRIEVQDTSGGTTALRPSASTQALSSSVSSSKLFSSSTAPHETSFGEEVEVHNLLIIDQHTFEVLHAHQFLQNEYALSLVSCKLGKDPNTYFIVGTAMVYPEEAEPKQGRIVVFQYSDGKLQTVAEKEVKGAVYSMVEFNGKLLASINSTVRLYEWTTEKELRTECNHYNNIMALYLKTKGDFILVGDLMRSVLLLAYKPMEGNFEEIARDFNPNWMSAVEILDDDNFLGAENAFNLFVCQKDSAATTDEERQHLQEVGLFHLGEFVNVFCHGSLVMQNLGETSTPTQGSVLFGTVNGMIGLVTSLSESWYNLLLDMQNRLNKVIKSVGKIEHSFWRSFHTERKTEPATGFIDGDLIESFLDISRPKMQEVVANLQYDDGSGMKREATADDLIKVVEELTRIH
Cereblon (CRBN), sequence (Q96SW2 whole entry): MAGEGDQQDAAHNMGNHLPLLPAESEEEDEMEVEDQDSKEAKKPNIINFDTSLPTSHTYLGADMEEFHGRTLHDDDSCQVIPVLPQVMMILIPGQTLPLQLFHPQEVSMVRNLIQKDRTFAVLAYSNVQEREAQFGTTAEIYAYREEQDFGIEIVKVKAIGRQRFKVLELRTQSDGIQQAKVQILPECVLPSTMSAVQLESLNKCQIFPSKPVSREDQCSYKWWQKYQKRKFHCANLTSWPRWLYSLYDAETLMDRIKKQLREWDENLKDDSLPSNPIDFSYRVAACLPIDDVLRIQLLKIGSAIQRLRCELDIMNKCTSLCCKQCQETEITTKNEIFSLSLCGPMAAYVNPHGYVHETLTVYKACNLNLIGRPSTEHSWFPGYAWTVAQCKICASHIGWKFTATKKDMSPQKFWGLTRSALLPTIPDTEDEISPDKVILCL

SMILES | IC50 [µM]
CO[C@H]1/C=C/O[C@@]2(C)Oc3c(C)c(O)c4c(c3C2=O)C2=NC3(CCN(CC(C)C)CC3)NC2=C(NC(=O)/C(C)=C\C=C\[C@H](C)[C@H](O)[C@@H](C)[C@@H](O)[C@@H](C)[C@H](OC(C)=O)[C@@H]1C)C4=O [Rifabutin] | 15.8
CO[C@H]1/C=C/O[C@@]2(C)Oc3c(C)c(O)c4c(c3C2=O)C(=O)C=C(NC(=O)/C(C)=C\C=C\[C@H](C)[C@H](O)[C@@H](C)[C@@H](O)[C@@H](C)[C@H](OC(C)=O)[C@@H]1C)C4=O [Rifamycin S] | 3.09
